Test results as given in patent US7018806B2, “Method for identifying endocrine disruptors and kit for carrying out the same” (priority 2001, dated 2006).

Tests used:
aromatase = biological target: T1, aromatase (Homo sapiens, UniProt P11511); experiment: Aromatase activity in KGN cells by [3H]H2O release assay; type: cell-based; conditions: for effect on aromatase activity in KGN cells: method of Example 3, FIGS. 5A–5B
T1 construct: endogenous in cells; host or cells: KGN human ovarian granulosa-like tumor cell line (RIKEN RCB 1154)
T1 sequence (P11511 1-503): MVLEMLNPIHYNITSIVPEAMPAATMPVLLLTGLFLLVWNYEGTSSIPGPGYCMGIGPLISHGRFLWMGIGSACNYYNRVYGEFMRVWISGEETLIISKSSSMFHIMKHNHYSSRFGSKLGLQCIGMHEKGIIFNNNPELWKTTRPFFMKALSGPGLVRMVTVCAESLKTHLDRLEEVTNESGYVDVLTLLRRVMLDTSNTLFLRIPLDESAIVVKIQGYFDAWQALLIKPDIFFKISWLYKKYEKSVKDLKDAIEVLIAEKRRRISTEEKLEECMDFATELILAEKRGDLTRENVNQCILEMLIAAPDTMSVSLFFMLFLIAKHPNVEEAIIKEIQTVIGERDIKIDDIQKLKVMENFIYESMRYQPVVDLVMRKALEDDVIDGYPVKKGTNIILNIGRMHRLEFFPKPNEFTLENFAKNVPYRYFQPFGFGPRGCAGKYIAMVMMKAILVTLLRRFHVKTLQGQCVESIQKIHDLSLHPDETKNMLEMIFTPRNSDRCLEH
Experimental: Assaying for inhibition or activation of aromatase activity may be carried out by measuring the amount of [^3H]H2O released upon conversion of [1β-^3H]androstenedione to estrone using a modification of the method of Ackerman et al, J. Clin. Endocrinol. Metab., 53:412–417 (1981), or as described in Example 3 below. Briefly, the cells are plated on a petri dish (Falcon 3001) in culture medium with 10% (v/v) fetal calf serum (FCS). At is confluence, the culture medium is replaced with DMEM/Ham's F-12 containing 5.0–10% (v/v) dextran-coated, charcoal-treated FCS (DCS) (Hyclone, Logan Utah), and incubated for another 12 h in the presence or absence of 10^−5–10^−2 M db-cAMP (Wako Pure Chemical Industries Ltd.) and the test compound. After treatment, the cells are further incubated with 12.5 nM [1β-^3H]androstenedione (NEN Life Science Products, Boston, Mass.; SA, 27.5 Ci/mmol) for 6–12 h. After incubation, the medium (2.0 ml) is transferred to tubes containing 1.0 ml ice-cold 30% (w/v) trichloroacetic acid (TCA), and then centrifuged to remove precipitated protein. The cells are harvested using 0.25% (w/v) trypsin-1.0 mM EDTA to determine the protein concentration. The protocol for the extraction of the medium to measure the amount of [^3H]H2O is performed as described by Tanaka et al, Calcif. Tissue Int., 52:107–109 (1993). Finally, the amount of radioactivity in the [^3H]H2O is corrected by subtracting the blank values from each sample. The cell protein content is determined using a micro bicinichoninic acid kit (Pierce Chemical Co., Rockford, Ill.) after the cells are dissolved in 1.0 N NaOH. The aromatase activity is expressed as picomoles per mg cell protein. As a control, the aromatase activities of human granulosa cells (obtained from in vitro fertilization programs), human fibroblast, and HOS cell (human osteoblast-like cell line) (Tanaka et al, supra) can be measured in the same manner.
More specifically, aromatase activity was determined by measuring [^3H] H2O release upon conversion of [1β-^3H]androstenedione (A) to estrone (E1), as described by Mu et al, Biochem. Biophys. Res. Commun., 271(3):710–713 (2000). [1β-^3H]androstenedione was purchased from Amersham Pharmacia Biotech (Boston, Mass.).
The medium (2.0 ml) was extracted with chloroform, and was then centrifuged. The aqueous supernatant was mixed with 5.0% (w/v) charcoal/0.5% (w/v) dextran, and incubated for 30 min. Thereafter, the mixture was centrifuged and the supernatant was added to 5.0 ml of scintillation fluid and assayed for radioactivity. The amount of radioactivity in [^3H]H2O thus measured was standardized based on the protein concentration, which was determined using a micro BCA kit (Pierece Chemical Co., Rockford, Ill.), and expressed as pmol/mg protein/6 h.

marine neogastropods = conditions: cited from earlier work
P450arom promoter II = experiment: Luciferase reporter assay of P450arom promoter II in transfected KGN cells; type: cell-based, human; conditions: for luciferase activity of P450arom promoter II: 20 ng/ml, 48 h, basic state or stimulated by db-cAMP; for Ad4BP/SF-1-dependent increase of the luciferase activity: co-transfected with Ad4BP expression vector
Experimental: Thus, to determine whether or not the decreased expression of P450arom mRNA was regulated through promoter II, which is the major promoter in ovarian granulosa cells (Nishi et al, Endocrinol., 142:437–445 (2001); Means et al, Mol. Endocrinol., 5:2005–2013 (1991); and Carlone et al, Mol. Endocrinol., 11:292–304 (1997)), luciferase activity was determined using a 1 kb P450arom promoter II expression construct in the luciferase reporter vector, pGL3 (Mu et al, Mol. Cell. Endocrinol., 181:239–248 (2001)). pGL3 was obtained from Promega (Madison, Wis.). Transfection was performed using SuperFect reagents according to the manufacturer's instructions (Qiagen (Hilden, Germany)). More specifically, 1×10^5 cells were seeded in a 6-well plate 12 h prior to transfection, and transfected with 2.0 μg of DNA. Five nanograms of Renilla luciferase control reporter vector, pRL-CMV, obtained from Promega (Madison, Wis.), as an internal standard, were added per well to assess the transfection efficiency. […] The promoter activity determined is shown as a fold-increase in the luciferase activity normalized for Renilla luciferase activity (termed relative luciferase activity).

Ad4BP = experiment: Expression level of Ad4BP in KGN cells by RT-PCR; type: cell-based, human
KGN cells [1] = conditions: 200 ng/ml
Experimental: More specifically, early and late apoptotic changes in the cells were determined using an Annexin V-EGFP/PI Apoptosis Detection Kit, as described by Mu et al, Endocrinol., 142:3590–3597 (2001). […] After the treatment, the cells were washed once with phosphate-buffered saline (PBS), and then incubated with 200 ml of 1× binding buffer comprising 1.0 ml annexin V-EGFP and 1.0 ml propidium iodide (PI) at room temperature for 5 min in the dark. The cells were then scanned using a confocal laser scanning microscopy (Leica TCS-SP system, Leica Microsystems, Heidelberg, Germany) using a dual filter set for FITC & TRITC. The cell membrane was imaged for green fluorescence (stained by annexin V-EGFP) by excitation with the 488 nm line from an argon laser, and the emission was viewed through a 460 to 505 nm band pass filter. The cell nucleus was imaged for red fluorescence (stained by PI) by excitation with the 560 nm line from an argon laser, and the emission was viewed through a 520 to 580 nm band pass filter.

KGN cells [2] = experiment: Effect on KGN cell growth (cell counting, trypan blue exclusion); type: cell-based, human; conditions: for toxicity to KGN cells: more than 1000 ng/ml, within 24 h
Experimental: Further, both compounds were dissolved in ethanol, and the final concentration of ethanol in the cell growth medium was 0.1% (w/v).
More specifically, the cells were plated onto a 24-well plate at 1×10^4 cells/well in DMEM/F-12 supplemented with 10% (v/v) FCS. […] Cell viability was assessed by the trypan blue exclusion method.

P450arom mRNA = conditions: 20 ng/ml, 48 h
Experimental: RNA extraction and RT-PCR analysis for P450arom mRNA were performed as described by Ikuyama et al, Clin. Endrocrinol., 48(5):647–654 (1998). Taq DNA polymerase was obtained from Promega (Madison, Wis.) All of the primers for the PCR were synthesized by Amersham Pharmacia Biotech (Osaka, Japan). The PCR products were electrophoresed on 2.0% (w/v) agarose gel containing […] ethidium bromide.
The relative expression levels of P450arom vis-à-vis β-actin were determined by the measuring of the intensity of the ethidium bromide.

Thais clavigera = conditions: rock shell; cited from earlier work
[3] = system: E2 production in KGN cells; experiment: Estradiol (E2) production in cultured KGN cells (RIA); type: cell-based, human; conditions: 20 ng/ml, 7 days
Experimental: The media was collected and the E2 content in the media was determined by specific RIA (SRL, Inc. Tokyo, Japan).

[4] = same culture system (KGN cells)

CCCCNC(=O)n1c(NC(=O)OC)nc2ccccc21 [Benomyl]
effect on aromatase activity in KGN cells (aromatase): activate aromatase activity

c1ccc2c(c1)c1cccc3ccc4cccc2c4c31 [Benzopyrene]
effect on aromatase activity in KGN cells (aromatase): activate aromatase activity

ClC1=C(Cl)C2(Cl)C3C(Cl)C=CC3C1(Cl)C2(Cl)Cl (stereo not shown) [Heptachlor]
effect on aromatase activity in KGN cells (aromatase): activate aromatase activity

CC1=CC(=O)C=C2CC[C@@H]3[C@H](CC[C@]4(C)C(=O)CC[C@@H]34)[C@@]12C [SH489]
imposex induction (marine neogastropods; compared with TBT-exposure): same imposex-inducing effect

N#Cc1ccc(N(Cc2ccc(Br)cc2)n2cnnc2)cc1 [YM511]
extent of suppression of aromatase activity (aromatase; [4]): complete suppression | time for suppression of aromatase activity (aromatase; [4]): ≤ 5 min

CC(=O)O[C@]1(C(C)=O)CC[C@H]2[C@@H]3C=C(Cl)C4=CC(=O)[C@@H]5C[C@@H]5[C@]4(C)[C@H]3CC[C@@]21C [cyproterone acetate]
effect on TBT-induced imposex (marine neogastropods; in vivo): completely suppressed

CCCC(=O)Nc1ncnc2c1ncn2[C@@H]1O[C@@H]2COP(=O)(O)O[C@H]2[C@H]1OC(=O)CCC [db-cAMP, dibutyryl cyclic AMP]
increase in aromatase activity over baseline (aromatase; 10^−4 M db-cAMP): 1.7 fold | activation of the P450arom promoter II (P450arom promoter II; 10^−4 M db-cAMP): 1.7 fold

tributyltin [TBT]
expression level of Ad4BP (Ad4BP): unchanged | apoptotic changes (annexin V positive/PI negative) (KGN cells [1]; 48 h): early apoptotic cells | apoptotic changes (annexin V positive/PI positive) (KGN cells [1]; 72 h): late apoptotic cells | toxicity to KGN cells (KGN cells [2]): all of the cells died | luciferase activity of P450arom promoter II (P450arom promoter II): decreased | Ad4BP/SF-1-dependent increase of the luciferase activity (P450arom promoter II): significantly suppressed | P450arom mRNA levels (P450arom mRNA): decrease

triphenyltin [TPT]
effect on the development of imposex (Thais clavigera): strong effect | aromatase activity, % of the baseline (aromatase; 20 ng/ml, 72 h, basal (no db-cAMP)): about 30% | effect on db-cAMP-induced increase in aromatase activity (aromatase; 20 ng/ml, with 10^−4 M db-cAMP): suppressed | expression level of Ad4BP (Ad4BP): unchanged | E2 concentration in the medium [3]: significant decrease | effect on KGN cell proliferation (KGN cells [2]; less than 50 ng/ml (2 or 20 ng/ml), 7 days): little effect | toxicity to KGN cells (KGN cells [2]): all of the cells died | luciferase activity of P450arom promoter II (P450arom promoter II): decreased | Ad4BP/SF-1-dependent increase of the luciferase activity (P450arom promoter II): significantly suppressed
